The results in this text go back to patent US10849881B2, “Octahydro-cyclobuta[1,2-c;3,4-c′]dipyrrol-2-yl” (Hoffmann-La Roche Inc., priority 2013, dated 2020).

In this assay the target is ATX (human His-tagged) (Homo sapiens (Human), UniProt Q13822). The experiment in a line: Human ATX enzyme inhibition assay (fluorescence quenching, MR121 substrate). The class given is biochemical. The settings on record: 30 nM ATX, 1 μM MR121 substrate, 30° C., pH 8.0. The method in brief:
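Fluorescence quenching assay with MR121/tryptophan-labelled substrate analogue in Tris-HCl buffer (140 mM NaCl, CaCl2, MgCl2, 0.01% Triton X-100, pH 8.0). Serially diluted compounds were preincubated 15 min at 30 °C with 30 nM ATX (final), then 1 µM substrate (final) added and incubated 15 min at 30 °C.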

Regarding `COCCOc1cc(C(=O)N2C[C@@H]3[C@H]4CN(C(=O)c5ccc6[nH]nnc6c5)C[C@H]4[C@@H]3C2)nc2cc(C(F)(F)F)ccc12` [Example 1.079, (1H-benzotriazol-5-yl)-{(3aS,3bR,6aS,6bR)-5-[4-(2-methoxy-ethoxy)-7-trifluoromethyl-quinoline-2-carbonyl]-octahydro-cyclobuta[1,2-c;3,4-c′]dipyrrol-2-yl}-methanone], the IC50 was determined as 31.5 nM.

On to `O=C(c1ccc2[nH]nnc2c1)N1C[C@@H]2[C@H](C1)[C@H]1CN(C(=O)c3cc(-c4ccc(Cl)cc4)c(OCC(F)(F)F)cn3)C[C@@H]21` [Example 1.107, (1H-benzotriazol-5-yl)-{(3aS,3bR,6aS,6bR)-5-[4-(4-chloro-phenyl)-5-(2,2,2-trifluoro-ethoxy)-pyridine-2-carbonyl]-octahydro-cyclobuta[1,2-c;3,4-c′]dipyrrol-2-yl}-methanone], for which the IC50 is 141 nM. The same measure for `O=C(c1ccc(OCC(F)(F)F)nc1)N1C[C@@H]2[C@H](C1)[C@H]1CN(C(=O)c3ccc4[nH]nnc4c3)C[C@@H]21` [Example 1.099, (1H-benzotriazol-5-yl)-{(3aS,3bS,6aR,6bR)-5-[6-(2,2,2-trifluoro-ethoxy)-pyridine-3-carbonyl]-octahydro-cyclobuta[1,2-c;3,4-c′]dipyrrol-2-yl}-methanone]: 277 nM; for `CCOc1cc(C(=O)N2C[C@@H]3[C@H](C2)[C@H]2CN(C(=O)[C@@H]4CCc5[nH]nnc5C4)C[C@@H]32)nc2cc(Cl)ccc12` [Example 1.077, (7-chloro-4-ethoxy-quinolin-2-yl)-[(3aR,3bS,6aR,6bS)-5-((R)-4,5,6,7-tetrahydro-1H-benzotriazole-5-carbonyl)-octahydro-cyclobuta[1,2-c;3,4-c′]dipyrrol-2-yl]methanone]: 7.5 nM; for `COc1cc(C(=O)N2C[C@@H]3[C@H](C2)[C@H]2CN(C(=O)c4ccc5[nH]nnc5c4)C[C@@H]32)cc2ccccc12` [Example 1.026, [(3aS,3bS,6aR,6bR)-5-(1H-benzotriazole-5-carbonyl)-octahydro-cyclobuta[1,2-c;3,4-c′]dipyrrol-2-yl]-(4-methoxy-naphthalen-2-yl)-methanone]: 11.5 nM. Compound `CCn1ccc2c(OC(C)C)cc(C(=O)N3C[C@@H]4[C@H]5CN(C(=O)c6ccc7[nH]nnc7c6)C[C@H]5[C@@H]4C3)cc21` [Example 1.074, [(3aS,3bS,6aR,6bR)-5-(1H-benzotriazole-5-carbonyl)-octahydro-cyclobuta[1,2-c;3,4-c′]dipyrrol-2-yl]-(1-ethyl-4-isopropoxy-1H-indol-6-yl)-methanone] registered an IC50 of 5 nM. Compared with the last compound, the IC50 is about 2.3-fold lower. The same measure for `O=C(c1ccc2[nH]nnc2c1)N1C[C@@H]2[C@H](C1)[C@H]1CN(C(=O)c3ccc(-c4ccc(Cl)cc4)c(=O)[nH]3)C[C@@H]21` [Example 1.075, 6-[(3aR,3bS,6aR,6bS)-5-(1H-benzotriazole-5-carbonyl)-octahydro-cyclobuta[1,2-c;3,4-c′]dipyrrole-2-carbonyl]-3-(4-chloro-phenyl)-1H-pyridin-2-one]: 20 nM; for `CCn1ccc2c(OCC(F)(F)F)c(C(=O)N3C[C@@H]4[C@H]5CN(C(=O)c6ccc7[nH]nnc7c6)C[C@H]5[C@@H]4C3)ccc21` [Example 1.082, [(3aS,3bS,6aR,6bR)-5-(1H-benzotriazole-5-carbonyl)-octahydro-cyclobuta[1,2-c;3,4-c′]dipyrrol-2-yl]-[1-ethyl-4-(2,2,2-trifluoro-ethoxy)-1H-indol-5-yl]-methanone]: 3 nM.

For orientation: IC50 means the point on the concentration scale where inhibition reaches its midpoint. Low readings indicate inhibition by little substance, high ones a need for much substance.
